In the NIST ThermoML archive (doi:10.1021/acs.jced.5b00201):
± gives the expanded uncertainty stated by the source.

Assay: xn = mol fraction of the nth substance listed
Conditions: 298.2 K, 100 kPa, Liquid, Pycnometric method

Structure (SMILES): Cc1ccc(-c2ncc(Cl)cc2-c2ccc(S(C)(=O)=O)cc2)cn1 [etoricoxib] + C1COCCO1
- mass density (x1 = 0.07301): 1026.8 ± 0.9 kg/m3

Structure (SMILES): Cc1ccc(-c2ncc(Cl)cc2-c2ccc(S(C)(=O)=O)cc2)cn1 [etoricoxib] + CC(=O)N(C)C
- mass density (x1 = 0.08112): 942.7 ± 0.8 kg/m3

Structure (SMILES): Cc1ccc(-c2ncc(Cl)cc2-c2ccc(S(C)(=O)=O)cc2)cn1 [etoricoxib] + CCO
- mass density (x1 = 0.05374): 819.9 ± 0.7 kg/m3

Structure (SMILES): Cc1ccc(-c2ncc(Cl)cc2-c2ccc(S(C)(=O)=O)cc2)cn1 [etoricoxib] + CN(C)C=O
- mass density (x1 = 0.06899): 952.7 ± 0.8 kg/m3

Structure (SMILES): Cc1ccc(-c2ncc(Cl)cc2-c2ccc(S(C)(=O)=O)cc2)cn1 [etoricoxib] + C[S+](C)[O-]
- mass density (x1 = 0.06044): 1105.6 ± 1 kg/m3

Structure (SMILES): Cc1ccc(-c2ncc(Cl)cc2-c2ccc(S(C)(=O)=O)cc2)cn1 [etoricoxib] + O
- mass density (x1 = 1.56e-05): 994.8 ± 0.8 kg/m3

Structure (SMILES): Cc1ccc(-c2ncc(Cl)cc2-c2ccc(S(C)(=O)=O)cc2)cn1 [etoricoxib] + OCCCCO
- mass density (x1 = 0.07226): 1039.8 ± 0.9 kg/m3
